Laboratory results published in ChEMBL document CHEMBL1125977, “2-aryl-1,2-dihydro-6,7-dimethoxyquinazoline-3-oxides with positive inotropic activity” (1991).

Tests used:
[1] = tested on: Canis familiaris; assay: Inotropic activity of compound was evaluated as % change in heart rate at a dose of 8.75 (mg/Kg) in anesthetized dog; type: functional, Canis lupus familiaris
[2] = tested on: Canis familiaris; assay: Inotropic activity of compound was evaluated as % change in mean arterial blood pressure at a dose of 8.75 (mg/Kg) in anesthetized dog; type: functional, Canis lupus familiaris
[3] = tested on: Canis familiaris; assay: Inotropic activity of compound was evaluated as % increase in cardiac force at a dose of 8.75 (mg/Kg) in anesthetized dog; type: functional, Canis lupus familiaris, Heart
[4] = tested on: Canis familiaris; assay: Inotropic activity of compound was evaluated as % change in heart rate at a dose of 1.87 (mg/Kg) in anesthetized dog; type: functional, Canis lupus familiaris
[5] = tested on: Canis familiaris; assay: Inotropic activity of compound was evaluated as % increase in cardiac force at a dose of 1.87 (mg/Kg) in anesthetized dog; type: functional, Canis lupus familiaris, Heart
[6] = tested on: Canis familiaris; assay: Inotropic activity of compound was evaluated as % change in mean arterial blood pressure at a dose of 1.87 (mg/Kg) in anesthetized dog; type: functional, Canis lupus familiaris
[7] = tested on: Canis familiaris; assay: Inotropic activity of compound was evaluated as % change in mean arterial blood pressure at a dose of 8.28 (mg/Kg) in anesthetized dog; type: functional, Canis lupus familiaris
[8] = tested on: Canis familiaris; assay: Inotropic activity of compound was evaluated as % increase in cardiac force at a dose of 8.28 (mg/Kg) in anesthetized dog; type: functional, Canis lupus familiaris, Heart
[9] = tested on: Canis familiaris; assay: Inotropic activity of compound was evaluated as % change in heart rate at a dose of 8.28 (mg/Kg) in anesthetized dog; type: functional, Canis lupus familiaris
[10] = tested on: Canis familiaris; assay: Inotropic activity of compound was evaluated as % change in mean arterial blood pressure at a dose of 10 (mg/Kg, intraduodenally) in anesthetized dog; type: functional, Canis lupus familiaris
[11] = tested on: Canis familiaris; assay: Inotropic activity of compound was evaluated as % change in heart rate at a dose of 10 (mg/Kg, intraduodenally) in anesthetized dog; type: functional, Canis lupus familiaris
[12] = tested on: Canis familiaris; assay: Inotropic activity of compound was evaluated as % increase in cardiac force at a dose of 10 (mg/Kg, intraduodenally) in anesthetized dog; type: functional, Canis lupus familiaris, Heart

`COc1cc2c(cc1OC)C(C)=[N+]([O-])C(c1ccc3c(c1)OCO3)N2` (stereo not given) gave an HR [1] of 39%, an MABP [2] of -38% and a CF [3] of 124%.

`COc1cc2c(cc1OC)C(C)=[N+]([O-])C(c1c(F)c(F)c(F)c(F)c1F)N2` (stereo not given) gave an HR [4] of 8%, a CF [5] of 33% and an MABP [6] of 2%.

Molecule `COc1cc2c(cc1OC)C(C)=[N+]([O-])C(c1cc3c(cc1[N+](=O)[O-])OCO3)N2` (stereo not given) has an HR [1] of 4%, an MABP [2] of 0% and a CF [3] of 17%.

With `COc1cc2c(cc1OC)C(C)=[N+]([O-])C(c1ccccn1)N2` (stereo not given) the HR [1] was 16%, the MABP [2] was 0% and the CF [3] was 45%.

In the case of `COc1cc2c(cc1OC)C(C)=[N+]([O-])C(c1ccncc1)N2` (stereo not given), the HR [1] is reported as 8%, the MABP [2] is reported as 0% and the CF [3] is reported as 29%.

Work on `COc1cc2c(cc1OC)C(C)=[N+]([O-])C(c1ccc(C)cc1)N2` (stereo not given) yielded an HR [4] of 10%, a CF [5] of 45% and an MABP [6] of -6%.

`COc1cc2nc(-c3ccccc3)[n+]([O-])c(C)c2cc1OC` showed an HR [1] of 5%, an MABP [2] of 0% and a CF [3] of 29%.

`COc1cc2c(cc1OC)C(C)=[N+]([O-])C(c1cccc3c1OCO3)N2` (stereo not given) showed an MABP [7] of 10%, a CF [8] of 45% and an HR [9] of 13%.

Molecule `COc1ccc(C2Nc3cc(OC)c(OC)cc3C(C)=[N+]2[O-])cc1` (stereo not given) has an HR [4] of 8%, a CF [5] of 29% and an MABP [6] of -6%.

In the case of `COc1cc2c(cc1OC)C(C)=[N+]([O-])C(c1ccco1)N2` (stereo not given), the HR [1] is reported as 20%, the MABP [2] is reported as -14% and the CF [3] is reported as 123%.

In the case of `COc1cc2c(cc1OC)C(C)=[N+]([O-])C(c1ccccc1)N2` (stereo not given), the HR [1] is reported as 47%, the HR [4] is reported as 12% and the MABP [2] is reported as -28%. The CF [5] was 42%, the MABP [10] was -15% and the MABP [6] was -3%. It also gave an HR [11] of 37%, a CF [3] of 137% and a CF [12] of 157%.

With `COc1cc2c(cc1OC)C(C)=[N+]([O-])C(c1cccs1)N2` (stereo not given) the HR [1] was 21%, the MABP [2] was -31% and the CF [3] was 75%.

Work on `COc1cc2nc(-c3ccccc3)nc(C)c2cc1OC` yielded an HR [4] of -4%, a CF [5] of -14% and an MABP [6] of -20%.
